Assay results published in article PMC12154458, “High-Throughput Screens of Repurposing Hub and DOS Chemical Libraries Reveal Compounds with Novel and Potent Inhibitory Activity Against the Essential Non-Neuronal Acetylcholinesterase of Schistosoma mansoni (SmTAChE)” (International Journal of Molecular Sciences, 2025).
pIC50: −log10 of the molar value.

Key:
[1] = target: recombinant human acetylcholinesterase, rHsAChE (Homo sapiens, UniProt P22303); assay: biochemical; settings: for pIC50: read-out: qAC50 (IC50), rHsAChE
rSmTAChE [2] = target: T1, rSmTAChE (Schistosoma mansoni, UniProt A0A3Q0KMM5); type: biochemical; settings: for pIC50: read-out: qAC50 (IC50), rSmTAChE;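 as to Inhibition (%) (Average): mostly 20 µM final but a few compounds at 5 or 10 µM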;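 as to Inhibition (%) Replicate A: mostly 20 µM final but a few compounds at 5 or 10 µM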;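 as to Inhibition (%) Replicate B: mostly 20 µM final but a few compounds at 5 or 10 µM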
rSmTAChE [3] = target: T1, rSmTAChE; assay: biochemical

recombinant human acetylcholinesterase, rHsAChE, sequence (P22303 32-614): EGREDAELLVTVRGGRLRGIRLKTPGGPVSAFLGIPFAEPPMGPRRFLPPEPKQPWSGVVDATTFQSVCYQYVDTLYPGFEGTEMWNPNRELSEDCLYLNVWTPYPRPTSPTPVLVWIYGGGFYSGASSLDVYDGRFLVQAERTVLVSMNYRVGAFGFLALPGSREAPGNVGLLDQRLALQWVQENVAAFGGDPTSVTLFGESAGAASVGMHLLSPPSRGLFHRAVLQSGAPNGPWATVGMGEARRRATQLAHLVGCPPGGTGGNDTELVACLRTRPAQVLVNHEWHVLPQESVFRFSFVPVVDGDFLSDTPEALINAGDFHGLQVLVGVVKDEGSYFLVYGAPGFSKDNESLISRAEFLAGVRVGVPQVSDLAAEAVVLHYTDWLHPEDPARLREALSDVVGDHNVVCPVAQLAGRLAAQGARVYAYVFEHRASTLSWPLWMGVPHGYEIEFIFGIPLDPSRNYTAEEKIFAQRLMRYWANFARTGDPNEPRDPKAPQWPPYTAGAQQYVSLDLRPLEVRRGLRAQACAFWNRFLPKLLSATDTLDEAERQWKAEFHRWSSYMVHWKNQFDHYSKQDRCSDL
T1 sequence (A0A3Q0KMM5 27-661 limits assumed): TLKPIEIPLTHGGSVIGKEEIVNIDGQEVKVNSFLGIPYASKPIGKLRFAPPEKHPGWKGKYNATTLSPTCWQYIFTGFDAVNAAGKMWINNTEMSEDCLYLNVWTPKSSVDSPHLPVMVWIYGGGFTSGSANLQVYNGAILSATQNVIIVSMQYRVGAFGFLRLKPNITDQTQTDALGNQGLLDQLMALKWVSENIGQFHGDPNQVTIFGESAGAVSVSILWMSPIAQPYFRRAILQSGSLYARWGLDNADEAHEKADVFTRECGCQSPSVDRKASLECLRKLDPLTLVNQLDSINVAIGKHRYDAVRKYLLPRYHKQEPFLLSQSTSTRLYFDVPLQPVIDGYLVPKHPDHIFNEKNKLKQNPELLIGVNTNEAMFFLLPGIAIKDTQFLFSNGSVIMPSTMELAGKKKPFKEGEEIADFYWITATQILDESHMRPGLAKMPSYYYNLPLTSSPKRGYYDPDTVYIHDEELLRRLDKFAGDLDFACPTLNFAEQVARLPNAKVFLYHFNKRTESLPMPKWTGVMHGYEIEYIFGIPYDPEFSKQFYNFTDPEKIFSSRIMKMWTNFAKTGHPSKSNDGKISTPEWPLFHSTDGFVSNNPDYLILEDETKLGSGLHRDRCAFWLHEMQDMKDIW

Row | SMILES | Data Mode (curve class), rHsAChE [1] | Data Mode (curve class), rSmTAChE (rSmTAChE [2]) | pIC50 (rSmTAChE [2]) | Inhibition (%) (Average) (rSmTAChE [3]) | Inhibition (%) Replicate A (rSmTAChE [3]) [%] | Inhibition (%) Replicate B (rSmTAChE [3]) [%] | rHsAChE Data Mode [1] | rSmTAChE Data Mode (rSmTAChE [2]) | pIC50 [1] | IC50 (µM) rHsAChE ([1]; Table 2, DOS-A library, Inactive = inactive at the maximum tested concentration (40 µM)) | inhibition at 20 µM (rSmTAChE [3]; read-out: rSmTAChE HTS Inhibition (Ave, %)) [%]
1 | Cc1cc(C#N)cc(C)c1Oc1nc(Nc2ccc(C#N)cc2)nc(N)c1Br [BRD-K74717603-001-02-2] | inactive | decreasing (weakly active) | < 4.42 | 74.49 | 77.10 | 71.88 |  |  |  |  | 
2 | O=C(C[C@@H]1C[C@@H]2c3cc(NC(=O)Nc4ccccc4)ccc3O[C@@H]2[C@@H](CO)O1)NC1CCCC1 [BRD-K74918080-001-01-0] |  |  |  | 91.31 | 92.86 | 89.77 | inactive | decreasing (weakly active) |  |  | 
3 | COc1ccc(NC(=O)Nc2ccc3c(c2)[C@@H]2C[C@H](CC(=O)NCc4ccc5c(c4)OCO5)O[C@H](CO)[C@@H]2O3)cc1 [BRD-K77518191-001-01-1] |  |  |  | 88.00 | 87.37 | 88.63 | inactive | decreasing (weakly active) |  |  | 
4 | CCCC#Cc1ccc([C@H]2[C@@H](CO)N3C(=O)CN(S(=O)(=O)c4ccccc4C)C[C@@H]23)cc1 [BRD-K77990919-001-01-3] |  |  |  | 79.61 | 76.02 | 83.20 | inactive | inactive |  |  | 
5 | O=c1sn(-c2cccc3ccccc23)c(=O)n1Cc1ccccc1 [BRD-K81330143-001-04-8] | inactive | inactive |  | 88.72 | 89.17 | 88.27 |  |  |  |  | 
6 | C[C@]12CC[C@@H]3c4ccc(O)cc4CC[C@H]3[C@@H]1CCC2=O [BRD-K81839095-001-25-1] | inactive | inactive |  | 94.45 | 91.12 | 97.78 |  |  |  |  | 
7 | C=CCNc1nc(NCC=C)nc(N2CCN(C(c3ccc(F)cc3)c3ccc(F)cc3)CC2)n1 [BRD-K82677201-001-01-6] | decreasing (weakly active) | decreasing (weakly active) | < 4.42 | 71.59 | 72.90 | 70.28 |  |  | < 4.42 |  | 
8 | O=C(O)CCc1cc(C(=O)c2ccc(OC3CCCC3)cc2O)ccc1OCc1ccc2c(=O)[nH]oc2c1 [BRD-K84925803-001-01-9] | inactive | decreasing (weakly active) | < 4.42 | 87.31 | 83.68 | 90.95 |  |  |  |  | 
9 | CC1CCCCOC(CN(C)C(=O)Nc2cccc3ccccc23)C(C)CN(C(C)CO)C(=O)c2cc(N(C)C)ccc2O1 (centres unmarked) [BRD-K85440939-001-01-5] |  |  |  |  |  |  |  | decreasing |  | Inactive * | 63.9
10 | C[C@H](CO)N1C[C@H](C)[C@H](CN(C)CC2CC2)OCc2ccccc2-c2c(n(C)c3ccccc23)C1=O [BRD-K90625171-001-01-1] |  |  |  | 64.57 | 64.87 | 64.27 | inactive | decreasing (weakly active) |  |  | 
11 | CN(Cc1ccc(C(C)(C)C)cc1)Cc1cccc2ccccc12 [BRD-K90630139-003-05-9] | decreasing (weakly active) | inactive |  | 62.99 | 64.97 | 61.01 |  |  | < 4.42 |  | 
12 | O=C(O)C1(C(=O)O)CCC1.[NH2-].[NH2-].[Pt+2] [BRD-K90947825-001-02-7] | decreasing (weakly active) | decreasing | 4.45 | 69.15 | 70.08 | 68.22 |  |  | < 4.42 |  | 
13 | CCCNC(=O)Nc1ccc(Oc2ncnc3cc(OC)c(OC)cc23)cc1Cl [BRD-K90993449-001-02-7] | inactive | decreasing (weakly active) | < 4.42 | 77.29 | 77.00 | 77.59 |  |  |  |  | 
